Data from article PMC10859675, “Short‐chain mono‐carboxylates as negative modulators of allosteric transitions in Gloeobacter violaceus ligand‐gated ion channel, and impact of a pre‐β5 strand (Loop Ω) double mutation on crotonate, not butyrate effect” (Physiological Reports, 2024).
Values joined by “and” are separate entries in the source; they are usually repeats but may differ in a detail not shown here. Equal entries are not always repeated. Where two headings read alike, the source gives them in different places.

Tests used:
Assay type in all cases: cell-based
WT GLIC [1] = molecular target: T1, WT GLIC (Gloeobacter violaceus, UniProt Q7NDN8); assay: Whole-cell patch-clamp, protocol with pre-stimulation at low pHo, WT GLIC expressed in tk-ts13 cells; settings: for effect on GLIC current: 5 or 10 mM, pre-stimulation at pHo 5.0, 2–5 cells each; for current in the presence of di-CBX, % of control: 10 mM at pHo 5.0, mean
T1 construct: expressed in transfected cells; host or cells: tk-ts13 cells, GLIC DNA in pMT3 vector
T1 sequence (Q7NDN8 44-359): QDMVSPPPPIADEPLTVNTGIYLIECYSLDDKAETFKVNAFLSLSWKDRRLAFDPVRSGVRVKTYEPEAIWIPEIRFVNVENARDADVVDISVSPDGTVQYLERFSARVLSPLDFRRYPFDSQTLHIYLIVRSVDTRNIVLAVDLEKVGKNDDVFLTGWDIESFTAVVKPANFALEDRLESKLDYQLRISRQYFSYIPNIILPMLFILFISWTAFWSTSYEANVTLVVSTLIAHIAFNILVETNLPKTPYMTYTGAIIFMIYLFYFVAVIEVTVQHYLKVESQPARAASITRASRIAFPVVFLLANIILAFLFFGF
Description: We give here the main points and some differences.
All solutions were prepared from the acid forms of the buffers/acido‐basic compounds (BAPTA, HEPES, MES, CBX, etc.). Stock 100 mmol/L (mM) mono‐CBX water solutions were prepared directly at pH 5 (NaOH/HCl), aliquoted and kept at −20°C.
Fit of concentration‐effect curves. For proton activation curves, the peak value (Ipk[pHo]; inward current value at maximal absolute value) within 30 s was considered (y), and a plot against H^+ activity value (x) was fitted with a 3‐parameter Hill equation: y=ymax*1/1+EC50nH/x^nH , giving I max, EC50, and pH50 = −log(EC50). For potentiation/inhibition, data for [percent of control current] in the presence of the compound (y = 100*I CBX/I CONTROL) to [compound concentration value] […] For most compounds are presented: a fit of the mean of data (Graphs), and the mean ± standard deviation (SD) of data from individual cells (values in text).

WT GLIC [2] = molecular target: T1, WT GLIC; assay: Whole-cell patch-clamp, direct protocol (pHo jump and compound applied simultaneously), WT GLIC in tk-ts13 cells; settings: 1 mM at pHo 5.0, direct protocol, individual cells
Description: A direct protocol, where a pHo‐jump (from control pHo 7.5) and compound addition are applied simultaneously, was first used to examine the influence of saturated, short‐chain mono‐CBX compounds on low pHo‐induced GLIC current (Figure 1a).

GLIC R133A = GLIC R133A (Gloeobacter violaceus, UniProt Q7NDN8, R175A); set-up: expressed in transfected cells; host or cells: tk-ts13 cells, pMT3 vector; settings: 1 mM at pHo 5.0, mean
Description: (§1) ACET (Figure 4) and the 4‐carbon compounds BUTYR and CROTON (Figure 5) were tested on the CBX‐pockets single mutants, at 1 mM with pre‐stimulation at pHo 5.0.

GLIC R105A = molecular target: T2, GLIC R105A (Gloeobacter violaceus, UniProt Q7NDN8, R147A); settings: 1 mM at pHo 5.0, mean
T2 construct: expressed in transfected cells; host or cells: tk-ts13 cells, pMT3 vector
Description: as §1

GLIC E181A = molecular target: T3, GLIC E181A (Gloeobacter violaceus, UniProt Q7NDN8, E223A); settings: 1 mM at pHo 5.0, versus WT GLIC
T3 construct: expressed in transfected cells; host or cells: tk-ts13 cells, pMT3 vector
Description: as §1

GLIC Y102A = molecular target: T4, GLIC Y102A (Gloeobacter violaceus, UniProt Q7NDN8, Y144A); settings: 1 mM at pHo 5.0, mean
T4 construct: expressed in transfected cells; host or cells: tk-ts13 cells, pMT3 vector
Description: as §1

GLIC R77A = molecular target: T5, GLIC R77A (Gloeobacter violaceus, UniProt Q7NDN8, R119A); settings: 1 mM at pHo 5.0, mean
T5 construct: expressed in transfected cells; host or cells: tk-ts13 cells, pMT3 vector
Description: as §1

GLIC E104Q = molecular target: T6, GLIC E104Q (Gloeobacter violaceus, UniProt Q7NDN8, E146Q); settings: 1 mM at pHo 5.0, mean
T6 construct: expressed in transfected cells; host or cells: tk-ts13 cells, pMT3 vector
Description: as §1

GLIC E177A = molecular target: T7, GLIC E177A (Gloeobacter violaceus, UniProt Q7NDN8, E219A); settings: 1 mM at pHo 5.0, mean
T7 construct: expressed in transfected cells; host or cells: tk-ts13 cells, pMT3 vector
Description: as §1

GLIC D86A‐D88A = molecular target: T8, GLIC D86A‐D88A (Gloeobacter violaceus, UniProt Q7NDN8, D128A/D130A); settings: 1 mM at pHo 5.0, Figure 7 sample, mean
T8 construct: expressed in transfected cells; host or cells: tk-ts13 cells, pMT3 vector
Description: (§2) Compound modulation of the D86A‐D88A pre‐β5 variant (AA), N152A mutant and WT GLIC, was investigated in the protocol with pre‐stimulation at pHo 5.0 (Figure 7).

GLIC N152A = molecular target: T9, GLIC N152A (Gloeobacter violaceus, UniProt Q7NDN8, N194A); settings: 1 mM at pHo 5.0, mean
T9 construct: expressed in transfected cells; host or cells: tk-ts13 cells, pMT3 vector
Description: as §2

[3] = SUCCIN 10 mM at pHo 5.0, without ACET, after ACET 1 mM 50 s, one cell

T9 sequence (Q7NDN8 44-359 N194A): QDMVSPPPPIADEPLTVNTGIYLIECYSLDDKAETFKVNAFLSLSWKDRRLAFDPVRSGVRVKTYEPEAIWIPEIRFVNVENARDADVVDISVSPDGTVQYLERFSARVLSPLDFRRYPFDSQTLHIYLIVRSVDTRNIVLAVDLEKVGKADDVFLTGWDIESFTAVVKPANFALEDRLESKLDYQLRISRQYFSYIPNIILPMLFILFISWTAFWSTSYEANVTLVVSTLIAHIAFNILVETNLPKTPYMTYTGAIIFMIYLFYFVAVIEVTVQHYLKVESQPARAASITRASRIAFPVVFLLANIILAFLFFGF
T5 sequence (Q7NDN8 44-359 R119A): as the sequence (Q7NDN8 44-359 N194A) above, with R76A, A151N counted along it
T2 sequence (Q7NDN8 44-359 R147A): as the sequence (Q7NDN8 44-359 N194A) above, with R104A, A151N counted along it
T4 sequence (Q7NDN8 44-359 Y144A): as the sequence (Q7NDN8 44-359 N194A) above, with Y101A, A151N counted along it
T7 sequence (Q7NDN8 44-359 E219A): as the sequence (Q7NDN8 44-359 N194A) above, with A151N, E176A counted along it
Sequence of GLIC R133A (Q7NDN8 44-359 R175A): as the sequence (Q7NDN8 44-359 N194A) above, with R132A, A151N counted along it
T6 sequence (Q7NDN8 44-359 E146Q): as the sequence (Q7NDN8 44-359 N194A) above, with E103Q, A151N counted along it
T8 sequence (Q7NDN8 44-359 D128A/D130A): as the sequence (Q7NDN8 44-359 N194A) above, with D85A, D87A, A151N counted along it
T3 sequence (Q7NDN8 44-359 E223A): as the sequence (Q7NDN8 44-359 N194A) above, with A151N, E180A counted along it

O=C(O)/C=C/c1ccc(O)c(O)c1 [CAFFE, caffeic acid]
current in the presence of CAFFE, % of control (WT GLIC [1]; 0.1 mM at pHo 5.0, mean): 17.4 % of control

CC(=O)C(=O)O [pyruvate]
effect on GLIC current (WT GLIC [1]): no effect

CC(O)C(=O)O (stereo not drawn) [DL‐lactate]
effect on GLIC current (WT GLIC [1]): no effect

CCCCC(=O)O [VALER, Pentanoic acid]
IC50 (WT GLIC [1]; IC50 (from individual cells), pHo 5.0, mean ± SD): 289 µM

O=C(O)/C=C/C(=O)O [FUMAR, (E)‐but‐2‐enedioic acid]
current in the presence of di-CBX, % of control (WT GLIC [1]): 194 % of control

CC(=O)O [ACET, Ethanoic acid]
ratio of peak current values in the presence and in the absence of compound (Ipk[CBX@5.0]/Ipk[pHo 5.0]) (WT GLIC [2]; first CBX application): 0.400 and 0.424 and 0.533 and 0.575 | current decay (h) time constant (WT GLIC [2]; m^4 h fit): 0.000806 h and 0.000869 h and 0.000925 h and 0.00156 h | current in the presence of mono-CBX, % of control (GLIC R133A): 22.7 % of control | current in the presence of mono-CBX, % of control (GLIC R105A): 17.1 % of control | impact of the E181A substitution on the NAM effect (GLIC E181A): no impact | current in the presence of mono-CBX, % of control (GLIC Y102A): 16.1 % of control | current in the presence of mono-CBX, % of control (GLIC R77A): 71.4 % of control | current in the presence of mono-CBX, % of control (GLIC E104Q): 47.6 % of control | current in the presence of mono-CBX, % of control (GLIC E177A): 14.9 % of control | current in the presence of mono-CBX, % of control (WT GLIC [1]; 1 mM at pHo 5.0, WT sample of Figure 7, mean): 12.2 % of control | current in the presence of mono-CBX, % of control (100*I CBX/I CONTROL) (WT GLIC [1]; 1 mM at pHo 5.0, WT sample of Figures 4 and 5, mean): 12.2 % of control | activity on GLIC current (NAM effect) (WT GLIC [1]; 1 mM with pre-stimulation, pHo 5.0): active | GLIC current in the presence of ACET, % of control (WT GLIC [1]; ACET 1 mM at pHo 5.0, 50-180 s application, individual cells): 17 % of control and 6.6 % of control and 5.5 % of control and 17.2 % of control and 11.3 % of control | reversibility of negative modulation (slow components) (WT GLIC [1]; after compound wash-out): 3 to 10 min | slope parameter (fit of the mean value) (WT GLIC [1]; pHo 5.5, 10 cells): 1.6 | IC50 (WT GLIC [1]; pHo 5.5, 10 cells, read-out: IC50 (sigmoid fit of the mean value)): 136 µM | IC50 (WT GLIC [1]; pHo 5.5, mean ± SD, read-out: IC50 (from individual cells)): 128 µM | current in the presence of mono-CBX, % of control (GLIC D86A‐D88A): 14.6 % of control | current in the presence of mono-CBX, % of control (GLIC N152A): 9.7 % of control

O=C(O)CCC(=O)O [SUCCIN, Butanedioic acid]
current in the presence of di-CBX, % of control (WT GLIC [1]): 142 % of control | GLIC current with SUCCIN after ACET plateau, % of control current recorded immediately before ACET (WT GLIC [1]; [3]): 143 % of control | GLIC current with SUCCIN after ACET plateau, % of current recorded in the presence of ACET (WT GLIC [1]; [3]): 2170 % of ACET current | peak SUCCIN current (co-application with ACET), % of control current recorded immediately before ACET (WT GLIC [1]; SUCCIN 10 mM co-applied with ACET 1 mM, pHo 5.0, after 90, 120, 180 s of ACET, individual cells): 132 % of control and 28 % of control and 44 % of control | peak SUCCIN current (co-application with ACET), % of ACET current (WT GLIC [1]; SUCCIN 10 mM co-applied with ACET 1 mM, pHo 5.0, individual cells): 753 % of ACET current and 505 % of ACET current and 392 % of ACET current

NCCC(=O)O [β‐alanine]
effect on GLIC current (WT GLIC [1]): no effect
